{
  "source": "paper PMC5985439",
  "about": "“Multiple Resistance Evolution in Bipyridylium-Resistant Epilobium ciliatum After Recurrent Selection” (Frontiers in Plant Science, 2018)",
  "type_in_all_cases": "biochemical, Epilobium ciliatum",
  "key": {"[1]": {"biological_target": "T1, glutamine synthetase (GS), R2 biotype", "T1 construct": "gene GS1; native isoenzymes in crude leaf protein extract (rosette stage)", "assay": "GS activity, crude leaf protein extract", "settings": "stated gain, read-out: I50"}, "[2]": {"biological_target": "T2, glutamine synthetase (GS), S biotype", "T2 construct": "gene GS1; native isoenzymes in crude leaf protein extract (rosette stage); isoforms not resolved", "assay": "GS activity, crude leaf protein extract", "settings": "read-out: I50"}, "[3]": {"biological_target": "T3, glutamine synthetase (GS), R1 biotype", "T3 construct": "gene GS1; native isoenzymes in crude leaf protein extract (rosette stage); isoforms not resolved; described as glufosinate-sensitive", "assay": "GS activity, crude leaf protein extract", "settings": "read-out: I50"}, "[4]": {"system": "T4, acetolactate synthase (ALS), S biotype", "T4 construct": "native enzyme in de-salted crude extract of young leaves", "assay": "ALS activity, colorimetric acetoin at […] nm, de-salted leaf extract", "settings": "read-out: I50"}},
  "data": [
    {"smiles": "CP(=O)(O)CCC(N)C(=O)O", "note": "(stereo not shown) [glufosinate]", "values": [
      {"measurement": "IC50", "setting": "[1]", "result": 1250, "unit": "µM"},
      {"measurement": "IC50", "setting": "[2]", "result": 18.5, "unit": "µM"},
      {"measurement": "IC50", "setting": "[3]", "result": 25.8, "unit": "µM"}
    ]},
    {"smiles": "COc1cc(OC)nc(NC(=O)NS(=O)(=O)c2ncccc2C(F)(F)F)n1", "note": "[flazasulfuron]", "values": [
      {"measurement": "IC50", "setting": "[4]", "result": 30.9, "unit": "µM"}
    ]}
  ]
}
